{
  "source": "patent US20070197599A1",
  "about": "“HYDROXYLAMINES AND DERIVATIVES AS ANTI-ANGIOGENIC AGENTS” (priority 2006, published 2007)",
  "key": {"[1]": {"test_system": "VEGF-induced angiogenesis in the CAM model", "test": "VEGF-induced angiogenesis in the CAM model (TPH)", "type": "in vivo, chick", "procedure": "Neovascularization was examined by previously described methods (see references at the end of Example 5). Ten-day-old fertilized chicken eggs were incubated at 37° C. with 55% relative humidity. In the dark with the help of candling lamp and using a hypodermic needle a small hole was punctured in the shell covering the air sac. A second hole was punctured on the wider side of the egg above an avascular area of the embryonic membrane. An artificial air sac was created below the second hole by applying gentle vacuum to the first hole using a small rubber squeeze bulb. The vacuum caused the separation of chorioallantoic membrane (CAM) from the shell. An approximately 1.0 cm^2 widow was cut in the shell over the dropped CAM with the use of a mini drill. The underlying CAM was accessed through this small window.\nFilter disks were punched using a small puncher from filter paper #1 (Whatman International, United Kingdom). Filter disks were soaked in 3 mg/ml cortisone acetate solution (95% ethanol and water) and air-dried under sterile condition. For inducing angiogenesis, sterile filter disks were saturated with bFGF (1 μg/ml) or other pro-angiogenesis factors and control disks were saturated with PBS without Calcium and Magnesium.\nUsing sterile forceps one filter/CAM was placed from the window. The window was sealed with Highland brand transparent tape. After 24 hr, 10-25 µl of test agent (inhibitor) was injected intravenously or added topically into the CAM membrane of bFGF or other pro-angiogenesis factors stimulated CAMs. • Control filter disks received PBS without Calcium and Magnesium. • After 48 hr, CAM tissue directly beneath filter disk was harvested and placed in a 35-mm Petri dish. Eight-Ten eggs/treatment group was used.\nA pro-angiogenic agent (see Examples, below) was added to induce new blood vessel branches on the CAM of 10-day old embryos. Sterile disks of #1 filter paper (Whatman International, United Kingdom) were pre-treated with 3 mg/ml cortisone acetate, and air dried under sterile conditions. The disks were then suspended in PBS (Phosphate Buffered Saline) and placed on growing CAMs. Filters treated with TPH (TEMPOL-H) or TEMPOL and/or H2O2 or TPH and/or bFGF or VEGF were placed on the first day of the 3-day incubation.\nDigital Images and Microscopic analysis of CAM sections: CAM sections from Petri dish were examined using SV6 stereomicroscope (Karl Zeiss) at 50× magnification. Digital images were captured using a 3-CCD color video camera system (Toshiba America, New York, N.Y.). These images were analyzed using Image-Pro Plus software (Media Cybernetics). The number of branch points in blood vessels within the circular region superimposed to the area of a filter disk was counted for each section. After incubation at 37° C. with 55% relative humidity for 3 days, the CAM tissue directly beneath each filter disk was resected from control and treated CAM samples. Tissues were washed three times with PBS. Sections were placed in a 35-mm Petri dish (Nalge Nunc; Rochester, N.Y.) and were examined under a SV6 stereomicroscope (Karl Zeiss; Thornwood, N.Y.) at 50× magnification. Digital images of CAM sections adjacent to filters were collected using a 3-CCD color video camera system (Toshiba America; New York, N.Y.) and analyzed with the Image-Pro Plus software (Media Cybernetics; Silver Spring, Md.). The number of vessel branch points contained in a circular region equal to the area of a filter disk was counted for each section. Percent inhibition data are expressed as the quotient of the experimental value minus the negative control value divided by the difference between the positive control value and the negative control value. One image was counted in each CAM preparation, and findings from eight CAM preparations were analyzed for each treatment condition. In addition, each experiment was performed three times. […]"}, "[2]": {"test": "In vitro stability of Compound 1 in rat plasma", "type": "in vitro ADME", "conditions": "formed from OT-551 (Compound 1, 1000 ng/mL)", "procedure": "(§1) The active metabolite of Compound 1 (Cyclopropanecarboxylic acid 1-hydroxy-2,2,6,6-tetramethyl-piperidin-4-yl ester) is TPH. The objective of this analysis was to determine the in vitro half-life of Compound 1 in rat, rabbit, dog, and human plasma under standardized incubation conditions.\n(§2) Compound 1 was incubated with pooled rat, rabbit, dog, and human plasma for various times under standardized incubation conditions. Pre-labeled tubes containing pooled plasma from rats, rabbits, dogs, and humans were pre-incubated in a shaking 37° C. water bath. A Compound 1 solution was added to the tubes at a final concentration of 1000 ng/mL. Time zero samples (n=5) were immediately removed and transferred into tubes containing a stabilizer solution (DTPA, acetylcysteine and ascorbic acid), the LC/MS/MS assay internal standard and methanol. […] The tubes were vortexed, placed on ice, followed by centrifugation. One hundred-μL aliquots of the supernatant were transferred into HPLC sample vials. Additional tubes (n=5 at each time point) were incubated for 5, 10, 20, 30, 60, 120, and 240 minutes at 37° C. and thereafter processed. The amount of Compound 1 and TPH in each incubated sample was quantified using validated LC/MS/MS assays."}, "[3]": {"test": "In vitro stability of Compound 1 in rabbit plasma", "type": "in vitro ADME", "conditions": "formed from OT-551 (Compound 1, 1000 ng/mL)", "procedure": "as §1, §2"}, "[4]": {"test": "In vitro stability of Compound 1 in dog plasma", "type": "in vitro ADME", "conditions": "formed from OT-551 (Compound 1, 1000 ng/mL)", "procedure": "as §1, §2"}, "[5]": {"test": "In vitro stability of Compound 1 in human plasma", "type": "in vitro ADME", "conditions": "formed from OT-551 (Compound 1, 1000 ng/mL)", "procedure": "as §1, §2"}, "[6]": {"test_system": "mouse V79 cells", "conditions": "Mitchell et al., 2000; cited from earlier work"}, "[7]": {"test_system": "selenite induced cataract", "conditions": "mice; cited from earlier work"}},
  "data": [
    {"smiles": "CC1(C)CC(O)CC(C)(C)N1O", "note": "[TPH]", "values": [
      {"measurement": "inhibition of VEGF-induced angiogenesis", "setting": "[1]; 100-800 μg (Table 3)", "value": "dose-dependent inhibition"},
      {"measurement": "anti-angiogenesis efficacy against VEGF-induced angiogenesis as compared with bFGF", "setting": "[1]; Tables 2 and 3", "value": "much greater"},
      {"measurement": "Mean % Inhibition ± SD", "setting": "[1]; VEGF (2 μg/ml) + TPH 100 μg", "value": "37.6 ± 6.9", "unit": "%"},
      {"measurement": "Mean Branch points ± SD", "setting": "[1]; VEGF (2 μg/ml) + TPH 100 μg", "value": "154.8 ± 7.5"},
      {"measurement": "Mean % Inhibition ± SD", "setting": "[1]; VEGF (2 μg/ml) + TPH 200 μg", "value": "42 ± 3.5", "unit": "%"},
      {"measurement": "Mean Branch points ± SD", "setting": "[1]; VEGF (2 μg/ml) + TPH 200 μg", "value": "150 ± 3.8"},
      {"measurement": "Mean % Inhibition ± SD", "setting": "[1]; VEGF (2 μg/ml) + TPH 400 μg", "value": "53.3 ± 3.3", "unit": "%"},
      {"measurement": "Mean Branch points ± SD", "setting": "[1]; VEGF (2 μg/ml) + TPH 400 μg", "value": "137.8 ± 3.0"},
      {"measurement": "Mean % Inhibition ± SD", "setting": "[1]; VEGF (2 μg/ml) + TPH 800 μg", "value": "70.7 ± 9.1", "unit": "%"},
      {"measurement": "Mean Branch points ± SD", "setting": "[1]; VEGF (2 μg/ml) + TPH 800 μg", "value": "118.8 ± 9.9"},
      {"measurement": "Concentration of TPH in plasma", "setting": "[2]; incubation 0 min", "value": "10.23 ± 1.59", "unit": "ng/mL"},
      {"measurement": "Concentration of TPH in plasma", "setting": "[2]; incubation 5 min", "value": "30.47 ± 1.65", "unit": "ng/mL"},
      {"measurement": "Concentration of TPH in plasma", "setting": "[2]; incubation 10 min", "value": "50.91 ± 2.11", "unit": "ng/mL"},
      {"measurement": "Concentration of TPH in plasma", "setting": "[2]; incubation 20 min", "value": "86.30 ± 3.30", "unit": "ng/mL"},
      {"measurement": "Concentration of TPH in plasma", "setting": "[2]; incubation 30 min", "value": "119.63 ± 7.08", "unit": "ng/mL"},
      {"measurement": "Concentration of TPH in plasma", "setting": "[2]; incubation 60 min", "value": "201.94 ± 4.19", "unit": "ng/mL"},
      {"measurement": "Concentration of TPH in plasma", "setting": "[2]; incubation 120 min", "value": "304.66 ± 7.27", "unit": "ng/mL"},
      {"measurement": "Concentration of TPH in plasma", "setting": "[2]; incubation 240 min", "value": "362.66 ± 7.50", "unit": "ng/mL"},
      {"measurement": "Concentration of TPH in plasma", "setting": "[3]; incubation 0 min", "value": "270.55 ± 35.45", "unit": "ng/mL"},
      {"measurement": "Concentration of TPH in plasma", "setting": "[3]; incubation 5 min", "value": "587.17 ± 21.99", "unit": "ng/mL"},
      {"measurement": "Concentration of TPH in plasma", "setting": "[3]; incubation 10 min", "value": "604.21 ± 21.99", "unit": "ng/mL"},
      {"measurement": "Concentration of TPH in plasma", "setting": "[3]; incubation 20 min", "value": "590.06 ± 40.97", "unit": "ng/mL"},
      {"measurement": "Concentration of TPH in plasma", "setting": "[3]; incubation 30 min", "value": "533.01 ± 117.40", "unit": "ng/mL"},
      {"measurement": "Concentration of TPH in plasma", "setting": "[3]; incubation 60 min", "value": "569.19 ± 32.96", "unit": "ng/mL"},
      {"measurement": "Concentration of TPH in plasma", "setting": "[3]; incubation 120 min", "value": "525.63 ± 10.31", "unit": "ng/mL"},
      {"measurement": "Concentration of TPH in plasma", "setting": "[3]; incubation 240 min", "value": "477.54 ± 40.95", "unit": "ng/mL"},
      {"measurement": "Concentration of TPH in plasma", "setting": "[4]; incubation 0 min", "value": "0.00 ± 0.00", "unit": "ng/mL"},
      {"measurement": "Concentration of TPH in plasma", "setting": "[4]; incubation 5 min", "value": "5.85 ± 0.73", "unit": "ng/mL"},
      {"measurement": "Concentration of TPH in plasma", "setting": "[4]; incubation 10 min", "value": "8.77 ± 0.65", "unit": "ng/mL"},
      {"measurement": "Concentration of TPH in plasma", "setting": "[4]; incubation 20 min", "value": "12.79 ± 0.74", "unit": "ng/mL"},
      {"measurement": "Concentration of TPH in plasma", "setting": "[4]; incubation 30 min", "value": "16.22 ± 0.67", "unit": "ng/mL"},
      {"measurement": "Concentration of TPH in plasma", "setting": "[4]; incubation 60 min", "value": "25.68 ± 1.04", "unit": "ng/mL"},
      {"measurement": "Concentration of TPH in plasma", "setting": "[4]; incubation 120 min", "value": "39.31 ± 1.09", "unit": "ng/mL"},
      {"measurement": "Concentration of TPH in plasma", "setting": "[4]; incubation 240 min", "value": "53.92 ± 1.68", "unit": "ng/mL"},
      {"measurement": "Concentration of TPH in plasma", "setting": "[5]; incubation 0 min", "value": "48.76 ± 2.84", "unit": "ng/mL"},
      {"measurement": "Concentration of TPH in plasma", "setting": "[5]; incubation 5 min", "value": "186.71 ± 4.58", "unit": "ng/mL"},
      {"measurement": "Concentration of TPH in plasma", "setting": "[5]; incubation 10 min", "value": "241.99 ± 8.05", "unit": "ng/mL"},
      {"measurement": "Concentration of TPH in plasma", "setting": "[5]; incubation 20 min", "value": "310.10 ± 8.54", "unit": "ng/mL"},
      {"measurement": "Concentration of TPH in plasma", "setting": "[5]; incubation 30 min", "value": "365.53 ± 14.44", "unit": "ng/mL"},
      {"measurement": "Concentration of TPH in plasma", "setting": "[5]; incubation 60 min", "value": "449.85 ± 9.73", "unit": "ng/mL"},
      {"measurement": "Concentration of TPH in plasma", "setting": "[5]; incubation 120 min", "value": "519.12 ± 19.52", "unit": "ng/mL"},
      {"measurement": "Concentration of TPH in plasma", "setting": "[5]; incubation 240 min", "value": "501.39 ± 11.33", "unit": "ng/mL"},
      {"measurement": "radioprotection of mouse V79 cells", "setting": "[6]", "value": "did not provide any radioprotection"},
      {"measurement": "prevention of selenite induced cataract", "setting": "[7]", "value": "effective"}
    ]}
  ]
}
